# Reference: ChEMBL document CHEMBL1139533, “Structure-activity relationship studies of a series of antiviral and antibacterial aglycon derivatives of the glycopeptide antibiotics vancomycin, eremomycin, and dechloroeremomycin” (J Med Chem, 2005)
# Legend:
# [1] = test system: Moloney murine sarcoma virus; assay: Effective concentration against Moloney sarcoma virus; assay type: functional, organism-based, Viruses
# Enterococcus faecium [2] = assay: Minimum inhibitory concentration against glycopeptide resistant enterococci 569 Enterococcus faecium; assay type: functional
# [3] = test system: Human immunodeficiency virus 2; assay: Effective concentration against human immunodeficiency virus type 2; assay type: functional, organism-based
# [4] = test system: Staphylococcus haemolyticus; assay: Minimum inhibitory concentration against 602 Staphylococcus haemolyticus; assay type: functional
# [5] = test system: Staphylococcus epidermidis; assay: Minimum inhibitory concentration against 533 Staphylococcus epidermidis; assay type: functional
# L1210 = assay: Cytostatic activity against L1210 cell line; assay type: functional, cell-based; conditions: Mus musculus
# Staphylococcus aureus [6] = assay: Minimum inhibitory concentration against glycopeptide intermediate-resistant 3798 Staphylococcus aureus; assay type: functional
# CCRF-CEM = assay: Cytostatic activity to the compound against CEM cell line; assay type: functional, cell-based; conditions: Homo sapiens
# Staphylococcus aureus [7] = assay: Minimum inhibitory concentration against glycopeptide intermediate-resistant 3797 Staphylococcus aureus; assay type: functional
# Enterococcus faecalis [8] = assay: Minimum inhibitory concentration against glycopeptide resistant enterococci 560 Enterococcus faecalis; assay type: functional
# MOLT-4 = assay: Cytostatic activity to the compound against Molt4/C8 cell line; assay type: functional, cell-based; conditions: Homo sapiens
# Enterococcus faecalis [9] = assay: Minimum inhibitory concentration against 559 glycopeptide susceptible enterococci Enterococcus faecalis; assay type: functional
# C3H/3T3 = assay: Minimal cytotoxic concentration to cause an alteration in C3H/3T3 cell line morphology; assay type: functional; conditions: Mus musculus
# Enterococcus faecium [10] = assay: Minimum inhibitory concentration against glycopeptide susceptible enterococci 568 Enterococcus faecium; assay type: functional
# [11] = test system: Human immunodeficiency virus 1; assay: Effective concentration against human immunodeficiency virus type 1; assay type: functional, organism-based
SMILES,EC50 [1] [µM],MIC (Enterococcus faecium [2]) [µg/mL],EC50 [3] [µM],MIC [4] [µg/mL],MIC [5] [µg/mL],IC50 (L1210) [µM],MIC (Staphylococcus aureus [6]) [µg/mL],IC50 (CCRF-CEM) [µM],MIC (Staphylococcus aureus [7]) [µg/mL],MIC (Enterococcus faecalis [8]) [µg/mL],IC50 (MOLT-4) [µM],MIC (Enterococcus faecalis [9]) [µg/mL],MCC (C3H/3T3) [µg/mL],MIC (Enterococcus faecium [10]) [µg/mL],EC50 [11] [µM]
CN[C@H](CC(C)C)C(=O)N[C@H]1C(=O)N[C@@H](CC(N)=O)C(=O)N[C@H]2C(=O)N[C@H]3C(=O)N[C@H](C(=O)N[C@H](C(=O)NC4C5CC6CC(C5)CC4C6)c4cc(O)cc(O)c4-c4cc3ccc4O)[C@H](O)c3ccc(cc3)Oc3cc2cc(c3O)Oc2ccc(cc2Cl)[C@H]1O (stereo not given in full),> 4,32,20,16,16,> 250,16,> 250,16,32,> 250,8,20,16,8.5
CN[C@H](CC(C)C)C(=O)N[C@H]1C(=O)N[C@@H](CC(N)=O)C(=O)N[C@H]2C(=O)N[C@H]3C(=O)N[C@H](C(=O)N[C@H](C(=O)NC4C5CC6CC(C5)CC4C6)c4cc(O)cc(O)c4-c4cc3ccc4O)[C@H](O)c3ccc(c(Cl)c3)Oc3cc2cc(c3O)Oc2ccc(cc2Cl)[C@H]1O (stereo not given in full) [listing 1 of 2 here],13,–,8.5,–,–,≥ 250,–,> 250,–,–,≥ 250,–,–,–,3
CN[C@H](CC(C)C)C(=O)N[C@H]1C(=O)N[C@@H](CC(N)=O)C(=O)N[C@H]2C(=O)N[C@H]3C(=O)N[C@H](C(=O)N[C@H](C(=O)NC4C5CC6CC(C5)CC4C6)c4cc(O)cc(O)c4-c4cc3ccc4O)[C@H](O)c3ccc(c(Cl)c3)Oc3cc2cc(c3O)Oc2ccc(cc2Cl)[C@H]1O (stereo not given in full) [listing 2 of 2 here],–,32,–,4,4,–,4,–,4,32,–,2,100,2,–
CN[C@H](CC(C)C)C(=O)N[C@H]1C(=O)N[C@@H](CC(N)=O)C(=O)N[C@H]2C(=O)N[C@H]3C(=O)N[C@H](C(=O)N[C@H](C(=O)NCCCCCCCCCCN)c4cc(O)cc(O)c4-c4cc3ccc4O)[C@H](O)c3ccc(cc3)Oc3cc2cc(c3O)Oc2ccc(cc2Cl)[C@H]1O,> 4,32,25,8,8,≥ 250,8,202,8,32,196,8,20,8,8.5
CN[C@H](CC(C)C)C(=O)N[C@H]1C(=O)N[C@@H](CC(N)=O)C(=O)N[C@H]2C(=O)N[C@H]3C(=O)N[C@H](C(=O)N[C@H](C(=O)O)c4cc(O)cc(O)c4-c4cc3ccc4O)[C@H](O)c3ccc(c(Cl)c3)Oc3cc2cc(c3O)Oc2ccc(cc2Cl)[C@H]1O [listing 1 of 2 here],100,–,≥ 250,–,–,> 500,–,> 500,–,–,> 500,–,–,–,65
CN[C@H](CC(C)C)C(=O)N[C@H]1C(=O)N[C@@H](CC(N)=O)C(=O)N[C@H]2C(=O)N[C@H]3C(=O)N[C@H](C(=O)N[C@H](C(=O)O)c4cc(O)cc(O)c4-c4cc3ccc4O)[C@H](O)c3ccc(c(Cl)c3)Oc3cc2cc(c3O)Oc2ccc(cc2Cl)[C@H]1O [listing 2 of 2 here],–,> 64,–,8,4,–,4,–,4,> 64,–,2,> 100,4,–
NCCCCCCCCCCNC(=O)[C@H]1NC(=O)[C@H]2NC(=O)[C@H](NC(=O)[C@@H]3NC(=O)[C@H](CC(N)=O)NC(=O)[C@H](N)[C@H](O)c4ccc(cc4)Oc4cc3cc(c4O)Oc3ccc(cc3)[C@H]2O)c2ccc(O)c(c2)-c2c(O)cc(O)cc21,7.8,> 64,> 25,> 32,> 32,≥ 250,> 32,106,> 32,> 64,144,> 64,≥ 20,> 64,> 25
CN[C@H](CC(C)C)C(=O)N[C@H]1C(=O)N[C@@H](CC(N)=O)C(=O)N[C@H]2C(=O)N[C@H]3C(=O)N[C@H](C(=O)N[C@H](C(=O)NCC45CC6CC(CC(C6)C4)C5)c4cc(O)cc(O)c4-c4cc3ccc4O)[C@H](O)c3ccc(c(Cl)c3)Oc3cc2cc(c3O)Oc2ccc(cc2Cl)[C@H]1O [listing 1 of 2 here],10,–,9.5,–,–,≥ 250,–,≥ 250,–,–,72,–,–,–,3
CN[C@H](CC(C)C)C(=O)N[C@H]1C(=O)N[C@@H](CC(N)=O)C(=O)N[C@H]2C(=O)N[C@H]3C(=O)N[C@H](C(=O)N[C@H](C(=O)NCC45CC6CC(CC(C6)C4)C5)c4cc(O)cc(O)c4-c4cc3ccc4O)[C@H](O)c3ccc(c(Cl)c3)Oc3cc2cc(c3O)Oc2ccc(cc2Cl)[C@H]1O [listing 2 of 2 here],–,16,–,2,2,–,2,–,2,16,–,1,≥ 100,2,–
